The record followed here is US8188119B2, “Pyridine derivatives substituted with heterocyclic ring and γ-glutamylamino group, and antifungal agents containing same” (Eisai R&D Management Co., Ltd, priority 2008, dated 2012).

In brackets after ≈: the same amount, converted by molar mass. Read-outs that look alike come from different tables or passages of the source.

The nature of data set [1]: Comparative test of solubility in water (Britton-Robinson buffer). The class given is physicochemical. To be noted: for solubility: aqueous buffer, Britton-Robinson buffer (ionic strength: 0.3), 25° C.; for Solubility in water compared with the parent compound: conclusion from Table 1.
The conditions of data set [2]: buffer.
The nature of data set [3]: Pharmacokinetic evaluation of compounds of Examples 2 and 3 in mice (plasma concentration, LC-MS). The format is in vivo. To be noted: female ICR mice, tail vein, 3 mg/kg as active form equivalent; for Plasma concentration of the administered compound: 20 min to 8 h; for Plasma concentration of the administered compound / Concentration of the active form in plasma after administration of the compound: FIG. 2. The protocol:
2. Pharmacokinetic Evaluation of Compound of Examples 2 and 3 in Mice
The compounds of Examples 2 and 3 were dissolved in respective concentrations of 1 and 1.5 mg/mL with 5% glucose (Otsuka Pharmaceutical) containing a 10 mM hydrochloric acid solution (Wako Pure Chemicals), and the active form was dissolved in a concentration of 0.5 mg/mL in 5% glucose (Otsuka Pharmaceutical) containing a 10 mM hydrochloric acid solution (Wako Pure Chemicals).
Using seven-week-old female ICR mice (Charles River Japan), with two mice per group, the compound of the present invention and the active form thereof were administered into the tail vein in a dose of 3 mg/kg, calculated as an active form equivalent. The tail vein was punctured 20 minutes, 45 minutes, and 1.5, 3, 5, and 8 hours after administration, and blood was collected with a heparin-treated pipette. The blood samples were put in sampling tubes and stored under ice cooling, after which they were centrifuged for 5 minutes at 10,500×g and at 4° C. The plasma thus obtained was accurately divided into 5 μL amounts and stored at −20° C. until they were analyzed.
The plasma concentrations of the compounds of Examples 2 and 3 and the active form thereof were measured using a liquid chromatography mass spectrometer (LC-MS: Waters, ZQ mass detector), and quantified by internal standard method. Imipramine hydrochloride (Sigma) was dissolved in a mixed solution of acetonitrile and methanol (9:1) so that the concentration would be 1 μmol/L, to prepare an internal standard substance solution (IS solution). The plasma was melted, after which 50 μL of IS solution was added thereto and mixed while still cooled with ice, and this was centrifuged (deproteinated) for 10 minutes at 1607×g and at 4° C., after which the supernatant was analyzed by LC-MS (Waters, ZQ mass detector). In the chromatogram thus obtained, the surface area of the peaks for the compounds of Examples 2 and 3, the active form thereof, and the internal standard substance were analyzed with analytic software (Waters: MassLynx 4.0), and the concentration of the compound included in the plasma was calculated by internal standard method.

Data set [4] can be described thus: Pharmacokinetic evaluation of compound of Example 1 in mice (plasma concentration, LC-MS/MS). The class given is in vivo. To be noted: female ICR mice, tail vein, 3 mg/kg. On the procedure:
1. Pharmacokinetic Evaluation of Compound of Example 1 in Mice […] The blood samples were put in sampling tubes and stored under ice cooling, after which they were centrifuged for 5 minutes at 10,500×g and at 4° C. The plasma thus obtained was accurately divided into 10 μL amounts and stored at −20° C. until they were analyzed. The plasma concentrations of the compound of Example 1 and the active form thereof were measured using a liquid chromatography mass spectrometer (LC-MS/MS: Waters, Quattro Ultima Pt), and quantified by internal standard method. […] MultiScreen™) and analyzed by LC-MS/MS (Waters, Quattro Ultima Pt). In the chromatogram thus obtained, the surface area of the peaks for the compound of Example 1, the active form thereof (the parent compound of the compound of Example 1), and the internal standard substance were analyzed with analytic software (Waters: MassLynx 4.0), and the concentration of the compound included in the plasma was calculated by internal standard method. The active form concentration after administration of the compound of Example 1 was corrected with the molecular weight ratio, that is, the value of (the molecular weight of the compound of Example 1)/(the molecular weight of the active form).

Data set [5] can be described thus: Stability in solution in Britton-Robinson buffer. To be noted: Britton-Robinson buffer (ionic strength: 0.3), 25° C.
Setting [6] is: pH 3, read-out: Solubility (mg/mL) pH 3.
Where [7] appears, read: pH 7, read-out: Solubility (mg/mL) pH 7.

On to `CN(C)CCOC(=O)[C@@H](N)CCC(=O)Nc1ncccc1-c1cc(Cc2ccc(COc3ccccn3)cc2)no1` [Example 3, (S)-2-Amino-4-(3-{3-[4-(pyridin-2-yloxymethyl)-benzyl]-isoxazol-5-yl}-pyridin-2-ylcarbamoyl)-butyric acid 2-dimethylamino-ethyl ester], for which the solubility in data set [1] (setting [6]) came out at 12 mg/mL (≈ 21500 µM). The solubility in data set [1] (setting [7]) was found to be 1.1 mg/mL (≈ 1970 µM). Also, the “Solubility in water compared with the parent compound” value in data set [1] is reported as “higher solubility in water than does the parent compound”. Besides, in data set [2], the “Stability in solution (remainder (%) after 24 h in dark place) pH 3” value was found to be 116% and the “Stability in solution (remainder (%) after 24 h in dark place) pH 7” value worked out at 82%. In addition, in data set [3], the “Conversion into the active form in the bodies of the mice” value (from here on “Conversion into the active form”) is recorded as “rapidly converted into the active form”, the “Plasma concentration of the administered compound” value was “not detected” and the “Concentration of the active form in plasma after administration of the compound” value is given as “rose sharply after administration”.
Regarding `COC(=O)[C@@H](N)CCC(=O)Nc1ncccc1-c1cc(Cc2ccc(COc3ccccn3)cc2)no1` [Example 2, (S)-2-Amino-4-(3-{-[4-(pyridin-2-yloxymethyl)-benzyl]soxazol-5-yl}-pyridin-2-ylcarbamoyl)-butyric acid methyl ester], the solubility in data set [1] (setting [6]) is 45 mg/mL (≈ 89700 µM). Also, the solubility in data set [1] (setting [7]) was 0.2 mg/mL (≈ 399 µM). Moreover, in data set [1], the “Solubility in water compared with the parent compound” value was “higher solubility in water than does the parent compound”. Further, in data set [2], the “Stability in solution (remainder (%) after 24 h in dark place) pH 3” value turned out to be 88% and the “Stability in solution (remainder (%) after 24 h in dark place) pH 7” value is recorded as 44%. Moreover, in data set [3], the “Conversion into the active form” value was “rapidly converted into the active form”, the “Plasma concentration of the administered compound” value is given as “not detected” and the “Concentration of the active form in plasma after administration of the compound” value was “rose sharply after administration”.
Take `N[C@@H](CCC(=O)Nc1ncccc1-c1cc(Cc2ccc(COc3ccccn3)cc2)no1)C(=O)O` [Example 1, (S)-2-Amino-4-(3-(3-(4-(pyridin-2-yloxymethyl)-benzyl)-isoxazol-5-yl)-pyridin-2-ylcarbamoyl)-butyric acid]: the solubility in data set [1] (setting [6]) amounted to 1.1 mg/mL (≈ 2260 µM). The solubility in data set [1] (setting [7]) came to 0.3 mg/mL (≈ 615 µM). Moreover, in data set [1], the “Solubility in water compared with the parent compound” value was “higher solubility in water than does the parent compound”. For the same molecule, the “Conversion into the active form” value in data set [4] was “rapidly converted into the active form”. Besides, in data set [4] (FIG. 1), the “Plasma concentration of the active form after administration of the compound” value was “increased quickly from immediately after administration” and the “Plasma concentration of the administered compound” value is recorded as “decreased quickly after administration”. Moreover, in data set [2], the “Stability in solution (remainder (%) after 24 h in dark place) pH 3” value is listed as 96% and the “Stability in solution (remainder (%) after 24 h in dark place) pH 7” value amounted to 92%.
Regarding `Nc1ncccc1-c1cc(Cc2ccc(COc3ccccn3)cc2)no1` [Parent compound, 3-(3-(4-(Pyridin-2-yloxymethyl)-benzyl)-isoxazol-5-yl)-pyridin-2-ylamine], the values for the solubility in data set [1] (setting [6]) and in data set [1] (setting [7]) were 0.29 mg/mL (≈ 809 µM) and 0.001 mg/mL (≈ 2.79 µM), respectively. Moreover, in data set [5] (pH 2 (printed in pH 3 column), 24 h in dark place), the “Stability in solution (remainder (%) after 24 h in dark place) pH 2” value is reported as 90 (pH 2) %. Further, the “Stability in solution (remainder (%) after 24 h in dark place) pH 4” value in data set [5] (pH 4 (printed in pH 3 column), 24 h in dark place) was 99 (pH 4) %. The “Stability in solution (remainder (%) after 24 h in dark place) pH 7” value in data set [5] (pH 7, 24 h in dark place) is reported as 95%.
